Legend:
glioma cell lines [1] = test: 72-hour acute cytotoxicity synergy assay in combination with regorafenib (ZIP synergy score); assay type: cell-based
Method: The combined inhibition of a resistance mechanism or a synthetic lethal interactor with regorafenib treatment should enhance the effect of regorafenib alone. Therefore, drugs targeting the different identified gene products were used in acute cytotoxicity synergy assays in combination with regorafenib to analyze the synergistic effect of drug combinations. Each of the 15 drugs was tested in a 72-hour acute cytotoxicity synergy assay in combination with regorafenib on six glioma cell lines in two independent runs. The calculated ZIP synergy score for each combination indicates if a combination is synergistic, the higher the score the stronger is the synergism. For the heatmaps shown in Fig. 3 the synergy scores were normalized within each cell line taking the highest synergy score detected in this cell line as 100% and a synergy score of 0 as 0%. For each target shown here identified in the CRISPR/Cas9 screens, the inventors detected a synergistic effect of the drug combination (for at least one drug when several drugs for the same target were tested).

glioma cell lines [2] = test: clonogenic survival assay; assay type: cell-based; settings: combination with regorafenib vs regorafenib monotherapy
SMA560 cells = test: in vivo glioma model, intracranially transplanted SMA560 cells; settings: VM/Dk mice intracranially transplanted with SMA560 cells; treated for three weeks; experiment stopped at day 120; solvent control 58 days
Method: For drugs targeting Bcl2 family members (navitoclax, venetoclax), MEK1/MAP2K1 (selumetinib, trametinib), integrins (cilengitide), and ARAF (sorafenib) further assays were performed to analyze the synergistic effect in combination with Regorafenib. […] The inventors extracted primary cells from glioblastoma tissue to test our drug combinations ex vivo. Analyzing the combination effect on cell viability of regorafenib and navitoclax on four glioblastoma primary cultures the observed effect of the combination treatment was in each model synergistic compared to the predicted effect calculated from both monotherapies (Figs. 4 E and F). The combination of navitoclax and regorafenib was further validated in vivo in VM/Dk mice intracranially transplanted with SMA560 cells (data not shown). The mice were treated either with the drug combination, regorafenib, or navitoclax monotherapies, or a solvent control for three weeks. Time until onset of neurological symptoms was observed. The solvent control group reached its median after 58 days, navitoclax monotherapy after 60 days, and regorafenib monotherapy after 67 days.

Row | SMILES | synergistic effect in acute cytotoxicity synergy assays (ZIP synergy score) (glioma cell lines [1]) | number of clones in clonogenic survival assays, combination treatment compared with regorafenib monotherapy (glioma cell lines [2]) | Time until onset of neurological symptoms (median) (SMA560 cells) [days]
1 | CC1(C)CCC(c2ccc(Cl)cc2)=C(CN2CCN(c3ccc(C(=O)NS(=O)(=O)c4ccc(N[C@H](CCN5CCOCC5)CSc5ccccc5)c(S(=O)(=O)C(F)(F)F)c4)cc3)CC2)C1 [navitoclax] | synergistic effects | significantly reduced numbers of clones | 60
2 | CNC(=O)c1cc(Oc2ccc(NC(=O)Nc3ccc(Cl)c(C(F)(F)F)c3)c(F)c2)ccn1 [regorafenib] | – | – | 67
3 | CC1(C)CCC(CN2CCN(c3ccc(C(=O)NS(=O)(=O)c4ccc(NCC5CCOCC5)c([N+](=O)[O-])c4)c(Oc4cnc5[nH]ccc5c4)c3)CC2)=C(c2ccc(Cl)cc2)C1 [venetoclax] | synergistic effects | – | –

Reference: patent publication EP4527386A1, “ANTI-CANCER PHARMACEUTICAL COMPOSITION COMPRISING REGORAFENIB” (Eberhard-Karls-Universität Tübingen Universitätsklinikum, priority 2023, dated 2025)
